Twelve compounds from patent US12516056B2, “Compounds for inhibition of janus kinase 1” (MANKIND PHARMA LTD., priority 2019, dated 2026) can be followed below.

Test [1] deals with IFN-γ production in NK 92 cells by IL-12. Description: IFN-γ production in NK 92 cells by IL-12 (ELISA). As to conditions: NK92, IFN-γ secretion, read-out: Cell Based Assay (μM) NK-92/IL-2/IFN-γ. Background: In an ELISA, binding on a coated surface is turned into a signal by an enzyme label.
In test [2] the test system is STAT5 phosphorylation by GMCSF in TF-1 cells. Briefly: JAK cellular assay: STAT5 phosphorylation by GMCSF in TF-1 cells (HTRF). Type of test: cell-based. As to conditions: Homo sapiens; TF-1 cells, GMCSF 5 ng/ml, pSTAT5 HTRF; read-out: Cell Based Assay (μM) TF-1/GMCSF/pSTAT5. A digest of the protocol:
(§1)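 Phospho-STAT3 (IL-6, 30 ng/ml) and phospho-STAT5 (GMCSF, 5 ng/ml) read by HTRF in lysates after 20 min cytokine exposure, minus unstimulated-cell background. Cells were serum-starved overnight, plated at 120,000/well, given compound 30 min at 37 °C beforehand; DMSO 0.2% final.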
For orientation: TR-FRET usually uses a lanthanide donor and a delayed reading to cut background.

The target in a further test is T1, Recombinant TYK2 (Homo sapiens, UniProt P29597).
T1 construct: purchased Carna Biosciences
Briefly: JAK biochemical assay (LANCE Ultra TR-FRET), TYK2. As to conditions: recombinant TYK2, TR-FRET; read-out: Biochemical Assay (μM) TYK2. A digest of the protocol:
(§2)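 TR-FRET read-out of ULight substrate phosphorylation by recombinant kinase gives % inhibition relative to vehicle. The assay buffer is HEPES pH 7.5 with EGTA, MgCl2, DTT and Tween-20.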

The test system of test [3] is STAT3 phosphorylation by IL-6 in TF-1 cells. Description: JAK cellular assay: STAT3 phosphorylation by IL-6 in TF-1 cells (HTRF). It counts as cell-based. Conditions: Homo sapiens, TF-1, TF-1 cells, IL-6 30 ng/ml, pSTAT3 HTRF; read-out: Cell Based Assay (μM) TF-1/IL-6/pSTAT3. The method in brief: as §1
Test [4] has as its system STAT5 phosphorylation by IL-2 in HT-2 cells. Description: STAT5 phosphorylation by IL-2 in HT-2 cells (HTRF). It counts as cell-based. Conditions: HT2, HT-2 cells, IL-2 50 U/ml, pSTAT5 HTRF; read-out: Cell Based Assay (μM) HT-2/IL-2/pSTAT5. The method in brief: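 Readout is HTRF detection of phospho-STAT5 in lysates, corrected for signal from unstimulated cells. Before lysis, HT-2 cells starved in 10% FBS medium received compound for 30 min (0.2% DMSO final, 37 °C), followed by 50 U/ml recombinant human IL-2 for 20 min.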

A further test addresses T2, Recombinant JAK2 (Homo sapiens, UniProt O60674).
T2 construct: purchased Carna Biosciences
Description: JAK biochemical assay (LANCE Ultra TR-FRET), JAK2. Conditions: recombinant JAK2, TR-FRET; read-out: Biochemical Assay (μM) JAK2. The method in brief:
as §2

The target of another test is T3, Recombinant JAK1 (Homo sapiens, UniProt P23458).
T3 construct: purchased Carna Biosciences
Briefly: JAK biochemical assay (LANCE Ultra TR-FRET), JAK1. Conditions: recombinant JAK1, TR-FRET; read-out: Biochemical Assay (μM) JAK1. A digest of the protocol:
as §2

The target of the next test is T4, Recombinant JAK3 (Homo sapiens, UniProt P52333).
T4 construct: purchased Carna Biosciences
T4 sequence (P52333 1-1124): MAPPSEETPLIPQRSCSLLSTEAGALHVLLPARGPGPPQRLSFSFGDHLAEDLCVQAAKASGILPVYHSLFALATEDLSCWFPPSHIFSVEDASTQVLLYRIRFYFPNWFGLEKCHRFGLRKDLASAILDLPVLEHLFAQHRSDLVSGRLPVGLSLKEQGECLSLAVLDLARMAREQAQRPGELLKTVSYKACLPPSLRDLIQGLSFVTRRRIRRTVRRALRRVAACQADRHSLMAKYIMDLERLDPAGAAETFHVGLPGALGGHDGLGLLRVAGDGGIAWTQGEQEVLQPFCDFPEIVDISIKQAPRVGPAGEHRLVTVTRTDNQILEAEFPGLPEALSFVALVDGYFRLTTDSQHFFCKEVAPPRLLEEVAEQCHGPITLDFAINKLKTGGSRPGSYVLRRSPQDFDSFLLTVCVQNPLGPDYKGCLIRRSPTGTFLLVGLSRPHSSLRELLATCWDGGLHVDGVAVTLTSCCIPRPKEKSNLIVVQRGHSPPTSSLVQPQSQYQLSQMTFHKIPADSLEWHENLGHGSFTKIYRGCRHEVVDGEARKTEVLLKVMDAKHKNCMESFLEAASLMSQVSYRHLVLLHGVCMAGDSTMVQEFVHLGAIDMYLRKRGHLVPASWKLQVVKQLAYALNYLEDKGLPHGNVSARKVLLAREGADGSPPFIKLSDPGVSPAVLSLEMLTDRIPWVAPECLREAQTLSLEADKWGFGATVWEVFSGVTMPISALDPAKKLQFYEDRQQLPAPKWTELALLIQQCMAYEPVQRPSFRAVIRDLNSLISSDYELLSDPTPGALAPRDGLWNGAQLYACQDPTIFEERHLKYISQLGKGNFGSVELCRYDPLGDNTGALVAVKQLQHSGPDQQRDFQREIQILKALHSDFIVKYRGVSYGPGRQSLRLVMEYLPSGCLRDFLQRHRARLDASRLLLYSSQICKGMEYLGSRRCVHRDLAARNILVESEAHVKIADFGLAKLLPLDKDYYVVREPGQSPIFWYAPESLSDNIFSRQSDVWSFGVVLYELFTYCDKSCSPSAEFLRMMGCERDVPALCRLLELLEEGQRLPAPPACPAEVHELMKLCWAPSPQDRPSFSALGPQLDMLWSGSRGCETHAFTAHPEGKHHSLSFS
Description: JAK biochemical assay (LANCE Ultra TR-FRET), JAK3. Conditions: recombinant JAK3, TR-FRET; read-out: Biochemical Assay (μM) JAK3. The method in brief: as §2

T2 sequence (O60674 whole entry): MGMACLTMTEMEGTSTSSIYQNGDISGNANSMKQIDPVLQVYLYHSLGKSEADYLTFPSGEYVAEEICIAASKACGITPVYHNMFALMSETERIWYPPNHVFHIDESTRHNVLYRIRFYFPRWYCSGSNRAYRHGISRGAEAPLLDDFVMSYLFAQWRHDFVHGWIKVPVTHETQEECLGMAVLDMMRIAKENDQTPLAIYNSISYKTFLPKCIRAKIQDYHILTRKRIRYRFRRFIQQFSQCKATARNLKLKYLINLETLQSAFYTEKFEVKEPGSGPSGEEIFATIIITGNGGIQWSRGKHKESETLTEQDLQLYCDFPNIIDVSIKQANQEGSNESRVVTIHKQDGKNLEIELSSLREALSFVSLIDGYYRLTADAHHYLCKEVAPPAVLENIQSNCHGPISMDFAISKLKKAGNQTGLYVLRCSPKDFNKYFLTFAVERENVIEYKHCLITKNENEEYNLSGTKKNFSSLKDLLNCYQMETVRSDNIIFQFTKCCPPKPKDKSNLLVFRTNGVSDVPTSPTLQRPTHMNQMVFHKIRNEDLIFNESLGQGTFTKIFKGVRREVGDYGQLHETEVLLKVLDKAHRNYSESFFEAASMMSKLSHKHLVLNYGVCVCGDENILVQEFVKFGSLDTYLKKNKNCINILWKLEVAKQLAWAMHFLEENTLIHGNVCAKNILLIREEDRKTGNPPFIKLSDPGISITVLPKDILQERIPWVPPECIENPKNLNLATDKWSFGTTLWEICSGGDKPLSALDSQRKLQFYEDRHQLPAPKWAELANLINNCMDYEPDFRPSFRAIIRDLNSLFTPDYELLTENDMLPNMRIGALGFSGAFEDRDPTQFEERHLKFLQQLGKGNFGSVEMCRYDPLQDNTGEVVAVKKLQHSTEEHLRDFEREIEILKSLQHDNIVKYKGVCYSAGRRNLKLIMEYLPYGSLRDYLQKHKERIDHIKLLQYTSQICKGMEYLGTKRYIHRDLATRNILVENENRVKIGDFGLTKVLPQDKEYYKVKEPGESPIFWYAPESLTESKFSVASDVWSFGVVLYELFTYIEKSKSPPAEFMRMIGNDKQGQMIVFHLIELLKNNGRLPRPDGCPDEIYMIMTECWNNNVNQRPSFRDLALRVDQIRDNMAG
T3 sequence (P23458 whole entry): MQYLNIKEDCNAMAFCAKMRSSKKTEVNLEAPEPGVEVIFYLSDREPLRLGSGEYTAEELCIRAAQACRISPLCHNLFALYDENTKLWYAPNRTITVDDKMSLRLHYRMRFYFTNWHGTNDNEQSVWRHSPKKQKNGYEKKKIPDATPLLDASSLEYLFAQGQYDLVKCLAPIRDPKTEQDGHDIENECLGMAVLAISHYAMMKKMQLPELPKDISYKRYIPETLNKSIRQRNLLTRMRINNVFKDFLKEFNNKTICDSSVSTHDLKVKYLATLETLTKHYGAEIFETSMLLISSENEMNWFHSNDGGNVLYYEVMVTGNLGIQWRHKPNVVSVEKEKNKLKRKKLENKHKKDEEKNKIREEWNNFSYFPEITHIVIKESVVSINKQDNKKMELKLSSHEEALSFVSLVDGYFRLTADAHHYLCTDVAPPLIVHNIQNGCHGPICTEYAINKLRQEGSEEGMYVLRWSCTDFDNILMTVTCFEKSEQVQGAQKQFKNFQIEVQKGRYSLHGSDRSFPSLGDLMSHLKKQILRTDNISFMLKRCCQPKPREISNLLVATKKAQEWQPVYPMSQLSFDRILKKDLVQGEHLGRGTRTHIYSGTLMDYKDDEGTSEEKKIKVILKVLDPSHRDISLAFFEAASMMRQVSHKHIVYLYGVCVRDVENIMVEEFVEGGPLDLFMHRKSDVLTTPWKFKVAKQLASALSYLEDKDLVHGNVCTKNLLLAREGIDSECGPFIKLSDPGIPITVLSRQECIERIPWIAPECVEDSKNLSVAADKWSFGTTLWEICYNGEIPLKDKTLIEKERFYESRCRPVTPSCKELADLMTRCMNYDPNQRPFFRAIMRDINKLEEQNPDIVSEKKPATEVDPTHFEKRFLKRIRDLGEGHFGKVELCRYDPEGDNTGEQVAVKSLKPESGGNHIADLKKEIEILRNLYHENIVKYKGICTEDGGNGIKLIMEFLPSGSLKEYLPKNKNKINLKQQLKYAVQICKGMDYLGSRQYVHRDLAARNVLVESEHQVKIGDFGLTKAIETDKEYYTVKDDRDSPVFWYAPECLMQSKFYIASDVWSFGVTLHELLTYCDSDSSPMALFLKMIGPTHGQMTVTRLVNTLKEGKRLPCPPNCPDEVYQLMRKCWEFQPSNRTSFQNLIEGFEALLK
T1 sequence (P29597 whole entry): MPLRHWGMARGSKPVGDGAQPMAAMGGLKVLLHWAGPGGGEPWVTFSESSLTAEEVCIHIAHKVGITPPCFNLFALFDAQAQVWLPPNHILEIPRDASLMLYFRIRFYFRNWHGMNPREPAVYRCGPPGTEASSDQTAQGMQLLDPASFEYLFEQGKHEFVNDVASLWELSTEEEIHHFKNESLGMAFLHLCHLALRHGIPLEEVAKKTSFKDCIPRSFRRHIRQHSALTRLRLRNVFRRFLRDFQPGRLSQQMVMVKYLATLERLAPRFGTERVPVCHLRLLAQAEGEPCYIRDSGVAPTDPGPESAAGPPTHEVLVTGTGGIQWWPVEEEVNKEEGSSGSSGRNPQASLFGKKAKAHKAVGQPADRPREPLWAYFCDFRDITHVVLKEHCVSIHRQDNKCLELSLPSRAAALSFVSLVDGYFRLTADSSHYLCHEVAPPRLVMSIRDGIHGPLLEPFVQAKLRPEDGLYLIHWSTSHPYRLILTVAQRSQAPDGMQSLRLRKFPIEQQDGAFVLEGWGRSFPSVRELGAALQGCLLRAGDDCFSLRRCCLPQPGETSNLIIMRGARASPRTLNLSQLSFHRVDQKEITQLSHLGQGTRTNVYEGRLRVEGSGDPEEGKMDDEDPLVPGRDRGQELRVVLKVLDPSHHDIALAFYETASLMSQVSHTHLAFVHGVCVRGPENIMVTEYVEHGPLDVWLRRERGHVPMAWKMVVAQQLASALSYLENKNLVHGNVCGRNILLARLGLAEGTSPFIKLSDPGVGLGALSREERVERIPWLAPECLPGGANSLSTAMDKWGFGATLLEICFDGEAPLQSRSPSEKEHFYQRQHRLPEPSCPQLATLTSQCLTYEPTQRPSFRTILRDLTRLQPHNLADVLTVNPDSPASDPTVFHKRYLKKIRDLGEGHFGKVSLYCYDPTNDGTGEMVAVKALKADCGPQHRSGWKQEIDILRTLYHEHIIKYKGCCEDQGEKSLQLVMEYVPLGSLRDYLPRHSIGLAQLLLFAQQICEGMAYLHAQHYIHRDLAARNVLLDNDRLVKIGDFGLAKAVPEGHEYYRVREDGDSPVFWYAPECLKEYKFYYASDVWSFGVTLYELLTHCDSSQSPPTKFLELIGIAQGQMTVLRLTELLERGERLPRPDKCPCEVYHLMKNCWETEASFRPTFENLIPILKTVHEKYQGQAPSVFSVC

For the compound `CN1CCC([C@@](O)(c2ccc(-n3cc(-c4ccnc5[nH]cnc45)cn3)nc2)C(F)(F)F)C1` (stereo partly drawn) [Example 1235, (R)-1-(6-(4-(3H-imidazo[4,5-b]pyridin-7-yl)-1H-pyrazol-1-yl)pyridin-3-yl)-2,2,2-trifluoro-1-(1-methylpyrrolidin-3-yl)ethanol], the IC50 is > 1 µM in test [1]; > 1 µM in test [2]; > 1 µM on Recombinant TYK2; 0.36 µM in test [3]; 0.55 µM in test [4]; > 0.03 µM at Recombinant JAK2.
Take `O=C(NCCC(c1ccc(-n2cc(-c3ccnc4[nH]cnc34)cn2)nc1)C(F)(F)F)NC1CC1` (stereo not drawn) [Example 1179, 1-(3-(6-(4-(3H-imidazo[4,5-b]pyridin-7-yl)-1H-Pyrazol-1-yl)pyridin-3-yl)-4,4,4-trifluorobutyl)-3-cyclopropylurea]: the IC50 on Recombinant JAK1 is < 0.1 µM; at Recombinant JAK3, < 0.1 µM; in test [2] it was > 1 µM; on Recombinant TYK2, > 1 µM; in test [3], > 1 µM; in test [4] it was > 1 µM. Besides, the IC50 at Recombinant JAK2 was < 0.1 µM.
In the case of `O[C@@](c1ccc(-n2cc(-c3ccnc4[nH]cnc34)cn2)nc1)(C1CCN(C2COC2)C1)C(F)(F)F` (stereo partly drawn) [Example 1242, (R)-1-(6-(4-(3H-imidazo[4,5-b]pyridin-7-yl)-1H-pyrazol-1-yl)pyridin-3-yl)-2,2,2-trifluoro-1-(1-(oxetan-3-yl)pyrrolidin-3-yl)ethanol], the IC50 at Recombinant JAK1 is < 0.1 µM; on Recombinant JAK3, < 0.1 µM; in test [2], > 1 µM; at Recombinant TYK2, > 1 µM; in test [3], > 1 µM; in test [4], > 1 µM. The IC50 on Recombinant JAK2 is < 0.1 µM.
Take `O=C(NC1CC1)NC(c1ccc(-n2cc(-c3ccnc4[nH]cnc34)cn2)nc1)C(F)(F)F` (stereo not drawn) [Example 1178, 1-(1-(6-(4-(3H-imidazo[4,5-b]pyridin-7-yl)-1H-Pyrazol-1-yl)pyridin-3-yl)-2,2,2-trifluoroethyl)-3-cyclopropylurea]: the IC50 on Recombinant JAK1 is < 0.1 µM; at Recombinant JAK3, < 0.1 µM; in test [2], 1 µM; on Recombinant TYK2, > 1 µM; in test [3], > 1 µM; in test [4], > 1 µM. In addition, the IC50 at Recombinant JAK2 was < 0.1 µM.
Take `CC(C)N1CC(C(O)(c2ccc(-n3cc(-c4ccnc5[nH]cnc45)cn3)nc2)C(F)(F)F)C1` (stereo not drawn) [Example 1237, 1-(6-(4-(3H-imidazo[4,5-b]pyridin-7-yl)-1H-pyrazol-1-yl)pyridin-3-yl)-2,2,2-trifluoro-1-(1-isopropylazetidin-3-yl)ethanol]: the IC50 was > 3 µM in test [1]; 0.005 µM on Recombinant JAK3; > 1 µM in test [2]; 0.19 µM in test [3]; > 0.5 µM in test [4]; 0.01 µM at Recombinant JAK2.
As to `CN1CCC([C@](O)(c2ccc(-n3cc(-c4ccnc5[nH]cnc45)cn3)nc2)C(F)(F)F)C1` (stereo partly drawn) [Example 1234, (S)-1-(6-(4-(3H-imidazo[4,5-b]pyridin-7-yl)-1H-pyrazol-1-yl)pyridin-3-yl)-2,2,2-trifluoro-1-(1-methylpyrrolidin-3-yl)ethanol], the IC50 at Recombinant JAK1 is 0.006 µM; in test [1] it was > 1 µM; in test [2] it was > 1 µM; on Recombinant TYK2, 0.67 µM; in test [3] it was 0.14 µM; in test [4], 0.47 µM.
`O[C@](c1ccc(-n2cc(-c3ccnc4[nH]cnc34)cn2)nc1)(C1CCN(C2COC2)C1)C(F)(F)F` (stereo partly drawn) [Example 1243, (S)-1-(6-(4-(3H-imidazo[4,5-b]pyridin-7-yl)-1H-pyrazol-1-yl)pyridin-3-yl)-2,2,2-trifluoro-1-(1-(oxetan-3-yl)pyrrolidin-3-yl)ethanol]: the IC50 was < 0.1 µM on Recombinant JAK1; < 0.1 µM on Recombinant JAK3; > 1 µM in test [2]; > 1 µM at Recombinant TYK2; > 1 µM in test [3]; > 1 µM in test [4]. For the same compound, the IC50 at Recombinant JAK2 is < 0.1 µM.
`CNCCOC(c1ccc(-n2cc(-c3ccnc4[nH]cnc34)cn2)nc1)C(F)(F)F` (stereo not drawn) [Example 1228, 2-(1-(6-(4-(3H-imidazo[4,5-b]pyridin-7-yl)-1H-pyrazol-1-yl)pyridin-3-yl)-2,2,2-trifluoroethoxy)-N-methylethanamine]: the IC50 on Recombinant JAK1 was < 0.1 µM; on Recombinant JAK3 it was < 0.1 µM; in test [2], > 1 µM; on Recombinant TYK2 it was > 0.1 µM; in test [3] it was > 0.5 µM; in test [4], > 0.5 µM. At Recombinant JAK2, the IC50 is < 0.1 µM.
Take `CC(C)C(O)(c1ccc(-n2cc(-c3ccnc4[nH]cnc34)cn2)nc1)C(F)(F)F` (stereo not drawn) [Example 1129, 2-(6-(4-(3H-imidazo[4,5-b]pyridin-7-yl)-1H-pyrazol-1-yl)pyridin-3-yl)-1,1,1-trifluoro-3-methylbutan-2-ol]: the IC50 on Recombinant JAK1 is < 0.1 µM; at Recombinant JAK3, < 0.1 µM; in test [2], > 10 µM; at Recombinant TYK2, > 1 µM; in test [3], > 0.5 µM; in test [4], > 1 µM. Besides, the IC50 on Recombinant JAK2 is > 0.1 µM.
With `CS(=O)(=O)CCC(O)(c1ccc(-n2cc(-c3ccnc4[nH]cnc34)cn2)nc1)C(F)(F)F` (stereo not drawn) [Example 1223, 2-(6-(4-(3H-imidazo[4,5-b]pyridin-7-yl)-1H-pyrazol-1-yl)pyridin-3-yl)-1,1,1-trifluoro-4-(methylsulfonyl)butan-2-ol], the IC50 is 0.002 µM on Recombinant JAK1; 0.004 µM on Recombinant JAK3; > 1 µM in test [2]; 0.39 µM at Recombinant TYK2; > 0.1 µM in test [3]; > 0.5 µM in test [4]. Besides, the IC50 on Recombinant JAK2 is 0.015 µM.
Turning to `CC(=O)N1CCC(C(O)(c2ccc(-n3cc(-c4ccnc5[nH]cnc45)cn3)nc2)C(F)(F)F)CC1` (stereo not drawn) [Example 1131, 1-(4-(1-(6-(4-(3H-imidazo[4,5-b]pyridin-7-yl)-1H-pyrazol-1-yl)pyridin-3-yl)-2,2,2-trifluoro-1-hydroxyethyl)piperidin-1-yl)ethanone], the IC50 at Recombinant JAK1 was 0.053 µM; at Recombinant JAK3 it was 0.11 µM; in test [2] it was > 10 µM; on Recombinant TYK2 it was > 1 µM; in test [3] it was > 0.5 µM; in test [4], > 1 µM. Besides, at Recombinant JAK2, the IC50 worked out at 0.38 µM.
With `CS(=O)(=O)CCC(c1ccc(-n2cc(-c3ccnc4[nH]cnc34)cn2)nc1)C(F)(F)F` (stereo not drawn) [Example 1174, 7-(1-(5-(1,1,1-trifluoro-4-(methylsulfonyl)butan-2-yl)pyridin-2-yl)-1H-pyrazol-4-yl)-3H-imidazo[4,5-b]pyridine], the IC50 on Recombinant JAK1 was 0.018 µM; at Recombinant JAK3, 0.055 µM; in test [2], > 10 µM; on Recombinant TYK2, > 1 µM; in test [3] it was 0.3 µM; in test [4] it was 1.3 µM. Besides, the IC50 on Recombinant JAK2 came to 0.108 µM.
